Reference: ChEMBL document CHEMBL1146296, “Influence of an additional 2-amino substituent of the 1-aminoethyl pharmacophore group on the potency of rimantadine against influenza virus A” (Bioorg Med Chem Lett, 2007)
The source made the active and inactive calls. The calls are words filed in the database; no cut-off is given here.

Assays:
Influenza B virus = experiment: Antiviral activity against influenza B virus; assay type: functional, organism-based
Influenza A virus [1] = experiment: Antiviral activity against influenza A virus (H3N2)-induced cytopathogenicity in MDCK cells by MTS method; assay type: functional, organism-based
MDCK = experiment: Cytotoxicity against MDCK cells; assay type: cell-based, Canis lupus familiaris; settings: dog
Influenza A virus [2] = experiment: Antiviral activity against influenza A virus (H3N2) assessed as inhibition of viral replication; assay type: functional, organism-based

Row | Compound | Activity (Influenza B virus) | EC50 (Influenza A virus [1]) [µM] | MTC (MDCK) [µM] | Activity (Influenza A virus [2])
1 | CN1CCN(C)C(C23CC4CC(CC(C4)C2)C3)C1.O=C(O)/C=C\C(=O)O (stereo not drawn) | inactive | 351 | > 520 | 
2 | C1CNC(C23CC4CC(CC(C4)C2)C3)CN1.O=C(O)/C=C\C(=O)O (stereo not drawn) | inactive | 24.1 | > 553 | Active
3 | CN1CCNCC1C12CC3CC(CC(C3)C1)C2.O=C(O)/C=C\C(=O)O (stereo not drawn) | inactive | 197 | > 535 | 
4 | NCC(N)C12CC3CC(CC(C3)C1)C2.O=C(O)/C=C\C(=O)O (stereo not drawn) | inactive | 18.3 | > 586 | Active
5 | CN1CC(C23CC4CC(CC(C4)C2)C3)N(C)C1=O (stereo not drawn) | inactive | 107 | 1007 | 
6 | CNC(CN)C12CC3CC(CC(C3)C1)C2.O=C(O)/C=C\C(=O)O (stereo not drawn) | inactive | 56.8 | > 568 | Active
7 | CN1CC(=O)NCC1C12CC3CC(CC(C3)C1)C2 (stereo not drawn) | inactive | 604 | > 1007 | 
8 | C1CNC(C23CC4CC(CC(C4)C2)C3)C1.Cl (stereo not drawn) |  | 51.3 | 1035 | 
9 | CC(N)C12CC3CC(CC(C3)C1)C2.Cl (stereo not drawn) [RIMANTADINE HYDROCHLORIDE] |  | 19.1 | > 1160 | 
10 | CN1C(=O)NCC1C12CC3CC(CC(C3)C1)C2 (stereo not drawn) | inactive | 269 | > 1067 | 
11 | O=C1NCC(C23CC4CC(CC(C4)C2)C3)N1 (stereo not drawn) | inactive | 72.6 | > 1135 | Active
12 | C1CCC(C23CC4CC(CC(C4)C2)C3)NC1.Cl (stereo not drawn) |  | 70.5 | 978 | 
13 | O=C1CNC(C23CC4CC(CC(C4)C2)C3)CN1 (stereo not drawn) | inactive | 91.8 | > 1067 | Active
14 | Cl.NC12CC3CC(CC(C3)C1)C2 [AMANTADINE HYDROCHLORIDE] |  | 49.1 | > 1333 | 
